# Test results as given in patent US7786258B2, “Methods for inhibiting immune complex formation in a subject” (Trinity Therapeutics, Inc., priority 2004, dated 2010).
# Positions of bridges follow the written chain, without caps; N, C: chain ends. No end group written: not given here.
# How the values were obtained:
# FcγIIa = test: Inhibition of FcR binding to PAP by additional peptides, FcγIIa coated plates (Example 8); settings: for OD 405 nm: OD read at 405 nm, positive control 1.599
# Experimental: (§1) Falcon microtiter plates were coated with 1:10 dilutions of highly purified FcγIIa, FcγIIb and FcγIII, sealed, and incubated for […] at 4° C. […] PAP immune complexes were formed as described in Example 5. PAP (100 μl) were pre-incubated with 100 μl of peptide for one hour. PAP/peptide mixtures were added to the FcR coated plates and incubated for one hour. After washing, plates were incubated with ABTS substrate for 15 minutes and read at 405 nm.
# RF = test: Inhibition of RF binding to immune complexes using additional peptides (Example 5); settings: for OD 405 nm: PAP pre-incubated with peptide one hour, RF coated plates, positive control 1.176
# Experimental: The ability of additional peptides to inhibit the binding of RF to immune complexes was tested. Immune complexes (PAP) were formed by mixing 2 μl of rabbit anti-peroxidase with 50 μl of peroxidase in 1 ml distilled water. PAP (100 μl) were pre-incubated with 100 μl of peptide for one hour. Plates coated with RF were blocked with 5× BSA for 24 hours. The PAP/peptide mixtures (100 μl) were incubated with the RF coated plates for 30 minutes. RF (100 μl of a 200 I.U. standard supplied by Research Diagnostics) was used as a negative control. After washing and incubation with ABTS substrate (Quidel Corp., San Diego, Calif.) for 15 minutes, plates were read at 405 nm.
# C1q = test: Inhibition of C1q binding to immune complexes using additional peptides (Example 6); set-up: species or system human; settings: for OD 405 nm: PAP pre-incubated with peptide or human C1q one hour, C1q coated plates, positive control 2.355
# Experimental: The C1q/PAP and peptide/PAP mixtures (100 μl) were incubated with C1q coated plates for 30 minutes. After washing, plates were incubated with ATBS (Quidel Corp.) for 15 minutes and read at 405 nm.
# FcγIII = test: Inhibition of FcR binding to PAP by additional peptides, FcγIII coated plates (Example 8); settings: OD read at 405 nm; positive control 1.588
# Experimental: as §1
# FcγIIb = test: Inhibition of FcR binding to PAP by additional peptides, FcγIIb coated plates (Example 8); settings: OD read at 405 nm; positive control 1.394
# Experimental: as §1
# human monomeric IgG = test: Inhibition of RF binding to monomeric IgG by additional peptides (Example 7); settings: peptides pre-incubated 1 hour with monomeric IgG, then 200 I.U. RF; positive control 1.312
# Experimental: The ability of additional peptides to inhibit RF binding to monomeric IgG was tested. A standard rheumatoid factor commercial test was used (Research Diagnostics, New Jersey) with the following modifications: 100 μl of test peptides were pre-incubated for 1 hour with human monomeric IgG (Research Diagnostics, New Jersey). Plates were then washed and incubated with 200 I.U. of the RF positive control supplied with the test kit. The rest of the test was performed according to the manufacturer's instructions.
# histone = test: Inhibition of histone binding: PAP immune complexes on histone-coated plates (Example 3)
# Experimental: Inhibition of histone binding: The binding of immune complexes to the kidneys in lupus nephritis appears to involve (a) the binding of histones to the GBM, and then (b) the binding of immune complexes (through the IgG Fc CH2-CH3 cleft) to the bound histones. Experiments similar to those described above were used to inhibit binding of purified histone to IgG Fc binding. Histone (Sigma) was diluted 1:10 in coating buffer (Alpha Diagnostic International) and incubated on Falcon microtiter plates for 24 hours. Plates were blocked with 5× BSA blocking solution (Alpha Diagnostic International) for 24 hours. Freshly prepared 1:10 rabbit PAP (Sigma) was pre-incubated with either peptides or histone for one hour, and 100 μl of the mixture was added to the histone-coated plates for one hour. Plates were incubated with ABTS substrate (Quidel Corp.) for 45 minutes, and OD 405 was read.
# MBP = test system: MBP
# Experimental: Inhibition of MBP binding: MBP (Sigma) was diluted 1:10 with coating buffer (Alpha Diagnostic International) and incubated for 24 hours on Falcon microtiter plates. Plates were washed and then blocked with 5× BSA blocking buffer (Alpha Diagnostic International) for 24 hours. Rabbit 1:10 PAP immune complexes were pre-incubated with equal amounts of peptide or MBP for 30 minutes. One hundred μl of PAP immune complexes/peptide or PAP/MBP was then added to the MBP-coated plates and incubated for one hour. The plates were washed and incubated with TMB substrate (Alpha Diagnostic International) for 30 minutes. After adding stop solution (Alpha Diagnostic International), the plates were read at 450 nm.
# Further experiments were conducted to determine the effect of SEQ ID NO:47 (also referred to as NB-406) on binding of MBP to IgG PAP immune complexes.
sequence,measurement,setting,value
APPCAFHLGELVWCT (disulfide 4-14 (inferred)),OD 405 nm,FcγIIa,0.605
same,OD 405 nm,RF,0.226
same,OD 405 nm,C1q,0.983
same,OD at 405 nm,FcγIII,0.880
same,OD 405 nm,FcγIIb,0.380
same,OD 405 nm,human monomeric IgG,1.159
APPCAWHLGELVWCT (disulfide 4-14 (inferred)),OD 405 nm,FcγIIa,0.658
same,OD 405 nm,RF,0.250
same,OD 405 nm,C1q,1.148
same,OD at 405 nm,FcγIII,0.530
same,OD 405 nm,FcγIIb,0.562
same,OD 405 nm,human monomeric IgG,1.166
APPDCAWHLGELVWCT (Synthetically generated polypeptide),OD 405 nm,FcγIIa,0.509
same,"inhibition of FcR binding to PAP, in words","FcγIIa; Table 13, statement for FcγIIa, FcγIIb and FcγIII together",greatest inhibition
same,OD 405 nm,RF,0.205
same,"inhibition of RF binding to immune complexes, in words",RF; Table 10,best inhibition
same,OD 405 nm,C1q,0.389
same,"inhibition of C1q binding, in words",C1q; Table 11,greatest inhibition
same,OD at 405 nm,FcγIII,0.670
same,OD 405 nm,"histone; Table 5 experiment, IgG PAP immune complexes, positive control 2.110",0.227
same,"inhibition of histone binding to immune complexes, in words",histone; text on Tables 4 and 5,significantly inhibit
same,OD 405 nm,"MBP; Table 7 experiment, IgG PAP immune complexes, positive control 2.343",0.500
same,"inhibition of MBP binding to immune complexes, in words",MBP; text on Tables 6 and 7,able to inhibit
same,OD 405 nm,FcγIIb,0.496
same,OD 405 nm,human monomeric IgG,1.065
DCAFHLGELVWCT (disulfide 2-12 (inferred)),OD 405 nm,FcγIIa,0.660
same,OD 405 nm,RF,0.267
same,OD 405 nm,C1q,0.859
same,OD at 405 nm,FcγIII,0.810
same,OD 405 nm,FcγIIb,0.510
same,OD 405 nm,human monomeric IgG,0.962
